27 molecules from patent US20160375042A1, “USE OF CAMPTOTHECIN DERIVATIVE IN PREPARING PHARMACEUTICAL USED FOR TREATING MULTIPLE MYELOMA” (priority 2014, published 2016) can be followed below.

Data set [1] in a line: Water-solubility test of compounds of Formula II and Formula IV. In kind it is physicochemical. To be noted: the C-20 phosphite salt (Formula II) itself, read-out: Water-solubility of Comp of Formula II.
Data set [2] deals with S1 and S1-M1-80 (characteristic expression of ABCG2/BCRP). Kind of data set: Anti-drug resistance test (MTT, resistance index). In kind it is cell-based. Particulars: S1-M1-80 (ABCG2/BCRP) versus S1 cells, 72 h, from IC50. The procedure: Logarithmic growth phase S1 and S1-M1-80 (characteristic expression of ABCG2/BCRP) were prepared as cell suspension of 2.5×10^4 cells/ml and 6×10^4 cells/ml, and were seeded in into 96-well plates with 0.19 ml/well. After incubating in cell incubator for 24 hours at 37° C., 5% CO2, sample solutions in various concentrations were added at 0.01 ml/well. Stroke-physiological saline solution is used as control well. Each treatment is conducted in 3 parallel wells. The drugs were added and incubated additional 72 h hours. And 5 mg/ml of MTT is added at 0.02 ml/well before four hours of the end the incubation. The culture liquid is removed at the end of incubation. Each well was added 0.1 ml of DMSO and OD values were measured at wavelength of 540 nm and reference wavelength of 655 nm. The experiment was repeated three times. Equation 1 is used to calculate cell growth inhibition rate (IR); and Equation 2 is used to calculate resistance index. Bliss method is used to calculate the 50% inhibitory concentration (IC50).

Data set [3] concerns human multiple myeloma cells NCI-H929 xenografts. Kind of data set: Tumor inhibitory effect on multiple myeloma cells NCI-H929 xenografts in nude mice. In kind it is in vivo, BALB/c nude mouse. The procedure: Multiple myeloma cells were routinely passaged in vitro, inoculated in 40 6-7-week-old BALB/c nude mouse, each mouse was subcutaneously injected human multiple myeloma cells NCI-H929 at its right axillary. Weighed after two days. The mice were randomly divided into five groups, eight in each group. Each group was dosed as follows: • i. physiological saline control group • ii. Topotecan positive control group, 2 mg/kg, once every 4 days, intraperitoneal injection • iii. WQ1001, high-dose group, 35 mg/kg, once every 4 days, intraperitoneal injection • iv. WQ1001, middle dose group, 25 mg/kg, once every 4 days, intraperitoneal injectionv. v. WQ1001, low dose group, 18 mg/kg, once every 4 days, intraperitoneal injection
Body weight(BW) as well as long diameter and short diameter of tumors were measured every two days. Tumor volume was calculated according to the Equation 1. On the 11th day after inoculation, the mice were weighed, long diameter and short diameter of tumors were measured, and relative tumor volume (RTV) was calculated according to Equation 2. Mice were sacrificed by cervical dislocation and the tumor mass was stripped and weighed. Inhibition rate (IR) was calculated according to the Equation 3. RTV and tumor weight (TW) for each group were analyzed through T-test.

Where [4] appears, read: Topotecan 2 mg/kg, once every 4 days, intraperitoneal, 11th day.
[5] abbreviates: Topotecan 2 mg/kg, once every 4 days, intraperitoneal, end (11th day after inoculation).
[6] abbreviates: Topotecan 2 mg/kg, once every 4 days, intraperitoneal, initial.

SMILES strings stand for the structures.

The term solubility denotes how much of the substance goes into solution per volume. Regarding `CCCCc1ccc2nc3c(cc2c1)Cn1c-3cc2c(c1=O)COC(=O)[C@@]2(CC)O[PH](=O)[O-].[Na+]` [WQ1121], the solubility in data set [1] is more than 10000 µg/mL. Same read-out and setting: as for `CC[C@@]1(O[PH](=O)[O-])C(=O)OCc2c1cc1n(c2=O)Cc2c-1nc1ccc(C)cc1c2OC.[Na+]` [WQ1123], the figure is more than 10000 µg/mL.

Consider `CCCc1ccc2nc3c(c(OC)c2c1)Cn1c-3cc2c(c1=O)COC(=O)[C@@]2(CC)O[PH](=O)[O-].[Na+]` [WQ1125], for which the solubility in data set [1] was more than 10000 µg/mL.

Turning to `CCc1c2c(nc3cc(F)c(F)cc13)-c1cc3c(c(=O)n1C2)COC(=O)[C@@]3(CC)O[PH](=O)[O-].[Na+]` [WQ1111], the Resistance index in data set [2] is listed as 7. The solubility in data set [1] was more than 10000 µg/mL. Turning to `CCc1c2c(nc3cc4c(cc13)OCO4)-c1cc3c(c(=O)n1C2)COC(=O)[C@@]3(CC)O[PH](=O)[O-].[Na+]` [WQ1105], in data set [2], the Resistance index came out at 20. Further, the solubility in data set [1] is more than 10000 µg/mL. Consider `CC[C@@]1(O[PH](=O)[O-])C(=O)OCc2c1cc1n(c2=O)Cc2cc3cc(C)ccc3nc2-1.[Na+]` [WQ1118], for which, in data set [2], the Resistance index came to 67. Also, the solubility in data set [1] was more than 10000 µg/mL.

For `CCc1c2c(nc3ccccc13)-c1cc3c(c(=O)n1C2)COC(=O)[C@@]3(CC)O[PH](=O)[O-].[Na+]` [WQ1107], the solubility in data set [1] was more than 10000 µg/mL.

For `CCc1c2c(nc3cc(Cl)c(Cl)cc13)-c1cc3c(c(=O)n1C2)COC(=O)[C@@]3(CC)O[PH](=O)[O-].[Na+]` [WQ1113], in data set [1], the solubility is more than 10000 µg/mL. With `CCc1c2c(nc3cc4c(cc13)OCCO4)-c1cc3c(c(=O)n1C2)COC(=O)[C@@]3(CC)O[PH](=O)[O-].[Na+]` [WQ1103], the solubility in data set [1] is more than 10000 µg/mL. `CC[C@@]1(O[PH](=O)[O-])C(=O)OCc2c1cc1n(c2=O)Cc2cc3cc4c(cc3nc2-1)OCCO4.[Na+]` [WQ1102]: in data set [2], the Resistance index stood at 15. Also, the solubility in data set [1] was more than 10000 µg/mL. Turning to `CC[C@@]1(O[PH](=O)[O-])C(=O)OCc2c1cc1n(c2=O)Cc2cc3cc4c(cc3nc2-1)OCO4.[Na+]` [WQ1104], the solubility in data set [1] is more than 10000 µg/mL. `CCc1c2c(nc3ccc(Br)cc13)-c1cc3c(c(=O)n1C2)COC(=O)[C@@]3(CC)O[PH](=O)[O-].[Na+]` [WQ1110]: in data set [1], the solubility is more than 10000 µg/mL. On to `CCc1c2c(nc3ccc(C)cc13)-c1cc3c(c(=O)n1C2)COC(=O)[C@@]3(CC)O[PH](=O)[O-].[Na+]` [WQ1108], for which the Resistance index in data set [2] stood at 38. In addition, the solubility in data set [1] is more than 10000 µg/mL. `CCc1c2c(nc3ccc(O)cc13)-c1cc3c(c(=O)n1C2)COC(=O)[C@]3(O)CC` [SN38, reference compound] gave a Resistance index in data set [2] of 290.

In data set [2], `CC[C@@]1(O[PH](=O)[O-])C(=O)OCc2c1cc1n(c2=O)Cc2c-1nc1ccccc1c2/C=N/OC(C)(C)C.[Na+]` [WQ1114] registered a Resistance index of 19. In data set [1], the solubility was more than 10000 µg/mL.

In data set [2], `CC[C@@]1(O[PH](=O)[O-])C(=O)OCc2c1cc1n(c2=O)Cc2c-1nc1ccccc1c2[Si](C)(C)C(C)(C)C.[Na+]` [WQ1116] displayed a Resistance index of 13. Further, the solubility in data set [1] is more than 10000 µg/mL.

On to `CCCCc1ccc2nc3c(c(OC)c2c1)Cn1c-3cc2c(c1=O)COC(=O)[C@@]2(CC)O[PH](=O)[O-].[Na+]` [WQ1126], for which the solubility in data set [1] was more than 10000 µg/mL. Turning to `CCCc1ccc2nc3c(cc2c1)Cn1c-3cc2c(c1=O)COC(=O)[C@@]2(CC)O[PH](=O)[O-].[Na+]` [WQ1120], in data set [1], the solubility is more than 10000 µg/mL.

Molecule `CC[C@@]1(O[PH](=O)[O-])C(=O)OCc2c1cc1n(c2=O)Cc2cc3cc(Cl)ccc3nc2-1.[Na+]` [WQ1117] registered a Resistance index in data set [2] of 9. For the same molecule, the solubility in data set [1] is more than 10000 µg/mL.

The molecule `CC[C@@]1(O)C(=O)OCc2c1cc1n(c2=O)Cc2cc3c(CN(C)C)c(O)ccc3nc2-1` [Topotecan, reference compound] showed a Resistance index in data set [2] of 210. The “anti-tumor effect on NCI-H929 xenografts in nude mice (in words)” value in data set [3] (2 mg/kg) is on record as “no significant anti-tumor effect”. Further, in data set [3] (setting [4]), the “IR By RTV %” value was 37.3%; the “IR By TW %” value is reported as 52.0%; the “RTV (X ± SD)” value amounted to 25.3 ± 14.8; the “TW (X ± SD, g)” value amounted to 0.71 ± 0.44 g. Also, in data set [3] (setting [5]), the “Bw (X ± SD, g) end” value turned out to be 19.2 ± 1.3 g and the “TV (X ± SD, mm^3) End” value was determined as 1123.2 ± 608.9 mm^3. In addition, in data set [3] (setting [6]), the “Bw (X ± SD, g) initial” value was found to be 17.2 ± 1.0 g and the “TV (X ± SD, mm^3) initial” value came to 45.9 ± 6.0 mm^3. Regarding `CC[C@@]1(O[PH](=O)[O-])C(=O)OCc2c1cc1n(c2=O)Cc2cc3c(Cl)c4c(cc3nc2-1)OCO4.[Na+]` [WQ1106], the solubility in data set [1] was more than 10000 µg/mL. Same read-out and setting: as for `CCc1ccc2nc3c(cc2c1OC)Cn1c-3cc2c(c1=O)COC(=O)[C@@]2(CC)O[PH](=O)[O-].[Na+]` [WQ1124], the figure is more than 10000 µg/mL; as for `CCc1c2c(nc3cc(F)c(C)cc13)-c1cc3c(c(=O)n1C2)COC(=O)[C@@]3(CC)O[PH](=O)[O-].[Na+]` [WQ1112], more than 10000 µg/mL.

The molecule `CC[C@@]1(O[PH](=O)[O-])C(=O)OCc2c1cc1n(c2=O)Cc2c-1nc1ccccc1c2OC.[Na+]` [WQ1122] displayed a Resistance index in data set [2] of 5. Also, the solubility in data set [1] was more than 10000 µg/mL.

Turning to `CCc1c2c(nc3ccc(Cl)cc13)-c1cc3c(c(=O)n1C2)COC(=O)[C@@]3(CC)O[PH](=O)[O-].[Na+]` [WQ1109], the solubility in data set [1] was more than 10000 µg/mL. In data set [2], `CC[C@@]1(O[PH](=O)[O-])C(=O)OCc2c1cc1n(c2=O)Cc2c-1nc1ccccc1c2CC[Si](C)(C)C.[Na+]` [WQ1115] came in with a Resistance index of 25. Also, in data set [1], the solubility was more than 10000 µg/mL. On to `CCc1ccc2nc3c(cc2c1)Cn1c-3cc2c(c1=O)COC(=O)[C@@]2(CC)O[PH](=O)[O-].[Na+]` [WQ1119], for which the solubility in data set [1] is more than 10000 µg/mL.
